Source: US8100830B2, “Non-therapeutic methods of evaluating skin neurosensitivity, kit and use of a kit for implementing the method” (Societe l'Oreal S.A., priority 2002, dated 2012)

How the values were obtained:
[1] = assay type: physicochemical
Source text: When the peripheral nervous system stimulant is capsaicin, a preferred vehicle is an aqueous-alcoholic solution, advantageously an aqueous-ethanolic solution, containing from 1% to 50% of ethanol in water, advantageously from 5% to 20%, preferably from 8% to 15% and more preferably 10%.

[2] = test system: skin of a non-selective population of 150 women; test: Example 7: skin neurosensitivity threshold of 150 women with the kit of Example 3 (capsaicin solutions C1-C5); assay type: in vivo, human
Procedure: This kit allows approximately 50 instances of use and comprises in a box (B) the following elements: • 1. a holder P allowing […] bottles as described in section 2 of this list to be held upright; • 2. 5 bottles F3 of 20 ml containing respectively 15 ml of solutions C1-C5 (3.16×10^−5% (C1), 1×10^−4% (C2), 3.16×10^−4% (C3), 1×10^−3% (C4) and 3.16×10^−3% (C5)) and a bottle F3T containing 15 ml of a 10% aqueous-alcoholic solution T; these bottles are shown in FIG. 2 and correspond to those defined in section 4 of Example 2; • 3. 80 standard cotton buds CT; • 4. a usage note containing the following elements: • a) use instructions for the implementation of the test, reproducing the protocol of Example 1, using the cotton buds and the bottles F3C1-5 and F3T; the bottles must be stored at 4° C. between two instances of use and discarded after one week of use. • b) a calibration system (atlas) allowing interpretation of the results (C1: excessively sensitive skin; C2: highly sensitive skin; C3: moderately sensitive skin; C4: relatively insensitive skin; C5: virtually insensitive skin; C5 not detected: completely insensitive skin).
Use of the Kit of Example 3 to Determine the Skin Neurosensitivity Threshold of 150 Women:
Study performed in a single-blind procedure on a non-selective population of 150 women aged from 18 to 60 years living in Paris or the surrounding region.
It is interesting to note that the sensations reported at the level of the detection threshold (characterized by a sensation detected on the side where the capsaicin was applied, lasting for at least 30 seconds) are highly varied (presence, pins and needles, stinging, hotness, etc.)

[3] = test system: nasogenial sulci of healthy subjects; test: Example 1: detection threshold test, increasing capsaicin concentrations C1-C4 applied to the nasogenial sulci against vehicle; assay type: in vivo, human; details: 13 healthy subjects, 3.3×10^−5% to 1×10^−3% in ethanol 10%, water 90%
Procedure: Capsaicin was tested in the form of aqueous-alcoholic solutions (ethanol 10%, water 90%).
Experimental Design: • Randomized, single-blind study, controlled • 13 healthy subjects of both sexes • 4 capsaicin solutions tested: 3.3×10^−5% (C1), 1×10^−4% (C2), 3.3×10^−4% (C3), 1×10^−3% (C4)
1st step: Simultaneous application to the nasogenial sulci on each side of the face of the vehicle, using impregnated cotton buds, in order to acclimatize the volunteer to the sensations induced by application of the vehicle. Waiting time of 3 minutes.
2nd step: Application of the vehicle to one side and of the capsaicin solution at concentration C1 on the other. After 3 minutes, ask whether the subject has perceived a difference between the 2 sides. If the subject describes an unattractive sensation on the side which has received the capsaicin, stop the test and allocate C1 as the detection threshold. If not, go immediately to step 3.
3rd step: Application of solution C2 to the side which has received the vehicle in […] and of the vehicle to the other side. After 3 minutes, ask whether the subject has perceived a difference between the 2 sides. If the subject describes a particular sensation on the side which has received the capsaicin, stop the test and allocate C2 as the detection threshold. If not, go immediately to step 4. […]

[4] = 109 women who detected a concentration, intensity scale 1 to 5

## COc1cc(CNC(=O)CCCC/C=C/C(C)C)ccc1O [capsaicin]
[1]
  stability over time of aqueous-ethanolic solutions: particularly stable over time
[2]; 74 of the 150 subjects
  delay before appearance of the sensation, maximum: 120 s
  delay before appearance of the sensation, minimum: 60 s
[2]; 74 of the 150 subjects, at the detection threshold
  delay before appearance of the sensation, mean: 79.9 s
[2]; [4]
  sensations at level 2 (slight but perceptible) at the detected concentration: 95%
  sensations at level 3 (moderately clearly perceptible) at the detected concentration: 5%
  sensations of level 4 (substantial) or painful at the detected concentration: No sensation of level 4 (“substantial”) or (“painful”) was reported
[2]; 150 women, C1 3.16×10^−5%, C2 1×10^−4%, C3 3.16×10^−4%
  subjects who detected C1, C2 or C3 (sensitive to highly sensitive population): 56%
[2]; 150 women, C4 1×10^−3%, C5 3.16×10^−3%
  subjects who detected C4 or C5 or did not detect any concentration (virtually or completely insensitive population): 44%
[2]; of 150 women, C1-C5
  women who detected a concentration: 109
[3]
  tolerance of the test (pain) as evaluated by the subjects: absolutely painless for all of the 13 subjects
